pIC50: −log10 of the molar value. Where two headings read alike, the source gives them in different places.
Experiments:
[1] = tested on: C4-2 prostate cancer cells; assay: C4-2 cell proliferation, Cell Titre Glo; type: cell-based; details: Homo sapiens, 48-hour period, 9-point dilution series, read-out: Cell Viability IC50
Procedure: Next, cell viability of C4-2 prostate cancer cells was determined. C4-2 prostate cancer cells were grown in RMPI-1640 (no L-glutamine, Gibco 21870076) supplemented with 10% fetal bovine […] (non-heat-inactivated, Cytiva Hyclone SH30071.03). […] A 9-point dilution series was used to assess the ability of each compound to inhibit the growth of C4-2 prostate cancer cells over a 48-hour period, as compared to negative control solvent, DMSO. Cell proliferation was measured by the Cell Titre Glo assay using 384 well microtiter plate reader to quantitate luminescence. The IC50 was determined from the values obtained.

DNAJB1 equals Hsp40 = assay: HSF1 target gene transcript expression qPCR in C4-2 cells, Hsp40; type: cell-based; details: Homo sapiens, 2 hours then SNX-2112 (100 nM) 5 hr, vs GAPDH and DMSO
Procedure: (§1) Next, the change in heat shock protein gene expression in C4-2 prostate cancer cells was determined. C4-2 prostate cancer cells were grown in RMPI-1640 (no L-glutamine, Gibco 21870076) supplemented with 10% fetal bovine […] (non-heat-inactivated, Cytiva Hyclone SH30071.03). To quantitatively measure the inhibition of HSF1 activity in C4-2 prostate cancer cells, compounds or DMSO were added to triplicate C4-2 cell cultures for 2 hours. HSF1 activity was then stimulated with the Hsp90 inhibitor SNX-2112 (100 nM) for an additional 5 hr at 37° C. in the presence of HSF1 degrader compounds or DMSO. Total RNA was extracted, converted to cDNA and used in qPCR assays to quantify the change in HSF1 target gene transcript expression (HSPA4L equals Hsp70, HSPB1 equals Hsp27 and DNAJB1 equals Hsp40) as compared to GAPDH internal control gene, and then compared to DMSO negative control.

Hsp70 = assay: HSF1 target gene transcript expression qPCR in C4-2 cells, Hsp70; type: cell-based; details: Homo sapiens, 2 hours then SNX-2112 (100 nM) 5 hr, vs GAPDH and DMSO
Procedure: as §1

[2] = molecular target: T1, purified recombinant human HSF1 (HSF1 DNA binding domain) (Homo sapiens, UniProt Q00613); assay: Melting temperature of HSF1 DBD with HSF1 degrader compounds (Sypro orange); details: read-out: ΔTm (° C.)
T1 sequence (Q00613 15-120): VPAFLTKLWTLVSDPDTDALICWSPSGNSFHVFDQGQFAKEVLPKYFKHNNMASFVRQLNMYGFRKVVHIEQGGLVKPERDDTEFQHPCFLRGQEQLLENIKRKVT
Procedure: The melting temperature (ΔTm) for purified recombinant human HSF1 (HSF1 DNA binding domain) was determined in the presence of HSF1 degrader compounds shown in Table 5 and compared to the solvent DMSO. Sypro orange dye was added to the HSF1 DBD (5 micromolar final concentration) in buffer, mixed and distributed to wells in 384 well microtiter plates. HSF1 degrader compound (12.5 micromolar) or DMSO solvent was added to three replicate wells per compound concentration, mixed and plates loaded into a Quant Studio thermnocycler and run on a temperature gradient from 25° C. to 85° C. with increments of 0.5° C. steps. Melting curves were obtained and analyzed using the ThermnoFisher Shift Software 1.4 fitted with a Boltzmann equation to determine the change in melting temperature of the protein in the presence of DMSO as compared to compound. The difference in the melting temperature under these two conditions was assigned as the change in melting temperature of ΔTm.

[3] = Rat liver microsome stability; type: in vitro ADME; details: rat liver microsomes, 37° C., read-out: Microsome Stability T1/2
Procedure: Next, the microsome stability in rats was determined for select compounds from Table 5. Test compounds are incubated with rat liver microsomes supplemented with co-factors at 37° C. Typical conditions were a compound concentration of 1 μM and 5 sampling time-points (0, 5, 15, 30 and 45 minutes), in duplicate. At each time-point, the reactions were terminated by the addition of organic solvent. The samples were centrifuged and the parent compound concentration was evaluated by LC-MS/MS measurements. Control compounds were included with well-established stability when incubated with rat microsomes. Multiple time points were used to determine % parent compound remaining at each time point and to calculate the Tiu2 for each compound in rat liver microsomes. A higher T1/2 indicates increased compound stability in microsomes.

[4] = molecular target: T2, recombinant HSF1 DNA-binding domain (DBD) (Homo sapiens, UniProt Q00613); assay: Differential Scanning Fluorimetry (DSF), HSF1 DBD melting temperature; details: Table 3; 5 μM HSF1 DBD, 25PM Compound; positive = stabilizes, negative = destabilizes HSF1
T2 sequence (Q00613 15-120): T1 sequence (Q00613 15-120)

[5] = 12.5 micromolar compound, 5 micromolar HSF1 DBD, compared to DMSO

| SMILES | pIC50 [1] | ΔTm at 12.5 µM [2, 5] | mrna remaining at 10 µM (DNAJB1 equals Hsp40) | mrna remaining at 10 µM (Hsp70) | half-life at 1 μM [3] | ΔTm at 12.5 µM [2] | ΔTm at 25 µM [4] |
| --- | --- | --- | --- | --- | --- | --- | --- |
| O=C(Nc1ccc(F)cc1)Nc1ccc(Cl)c([N+](=O)[O-])c1 [Compound 17, 1-(4-chloro-3-nitrophenyl)-3-(4-fluorophenyl)urea] | 5.25 | 3.69 °C | 23.6% | 30.4% | 1.54 h |  |  |
| O=C(Nc1ccc(F)cc1)Nc1ccc(Cl)c(S(=O)(=O)C(F)(F)F)c1 [Compound 54, 1-[4-chloro-3-(trifluoromethylsulfonyl)phenyl]-3-(4-fluorophenyl)urea] | 5.50 | 2.1 °C | 37% | 23% |  |  |  |
| N#Cc1ccc(NC(=O)Nc2ccc(Cl)c(C(F)(F)F)c2)cc1 [Compound 242, 1-(4-chloro-3-(trifluoromethyl)phenyl)-3-(4-cyanophenyl)urea] | 5.70 | 2.62 °C | 71% | 55% | 14.9 h |  |  |
| N#Cc1ccc(NC(=O)Nc2ccc(Cl)c(S(=O)(=O)C(F)(F)F)c2)cc1 [Compound 243, 1-(4-chloro-3-((trifluoromethyl)sulfonyl)phenyl)-3-(4-cyanophenyl)urea] | 5.76 | 1.77 °C | 39.5% | 38.5% | 2.56 h |  |  |
| N#Cc1ccc(NC(=O)Nc2ccc3c(c2)S(=O)(=O)C=C3)cc1C(F)(F)F [Compound 256, 1-(4-cyano-3-(trifluoromethyl)phenyl)-3-(1,1-dioxidobenzo[b]thiophen-6-yl)urea] | 5.46 | 1.9 °C |  |  | 1.23 h |  |  |
| N#Cc1ccc(NC(=O)Nc2ccc(Cl)c(S(=O)(=O)C(F)(F)F)c2)cc1C(F)(F)F [Compound 257, 1-(4-chloro-3-((trifluoromethyl)sulfonyl)phenyl)-3-(4-cyano-3-(trifluoromethyl)phenyl)urea] | 5.67 | 1.62 °C | 7% | 20% | 6.16 h |  |  |
| N#Cc1ccc(NC(=O)Nc2ccc(Cl)c(C(F)(F)F)c2)cc1C(F)(F)F [Compound 258, 1-(4-chloro-3-(trifluoromethyl)phenyl)-3-(4-cyano-3-(trifluoromethyl)phenyl)urea] | 5.78 | 2.26 °C | 65% | 60% | 10.6 h |  |  |
| N#Cc1ccc(NC(=O)Nc2ccc3c(c2)S(=O)(=O)C=C3)cc1CN1CCOCC1 [Compound 291, 1-(4-cyano-3-(morpholinomethyl)phenyl)-3-(1,1-dioxidobenzo[b]thiophen-6-yl)urea] | < 5.00 |  |  |  |  | -0.44 °C | -4.4 °C |
| N#Cc1ccc(NC(=O)Nc2ccc3c(c2)S(=O)(=O)C=C3)cc1CCN1CCOCC1 [Compound 292, 1-(4-cyano-3-(2-morpholinoethyl)phenyl)-3-(1,1-dioxidobenzo[b]thiophen-6-yl)urea] | < 5.00 |  |  |  |  | -0.76 °C | 3.33 °C |
| N#Cc1ccc(NC(=O)Nc2ccc(Cl)c(S(=O)(=O)C(F)(F)F)c2)cc1OCCN1CCOCC1 [Compound 293, 1-(4-chloro-3-((trifluoromethyl)sulfonyl)phenyl)-3-(4-cyano-3-(2-morpholinoethoxy)phenyl)urea] | 5.22 |  |  |  |  | 1.13 °C | -4.19 °C |
| N#Cc1ccc(NC(=O)Nc2ccc(OCCN3CCOCC3)c(S(=O)(=O)C(F)(F)F)c2)cc1 [Compound 294, 1-(4-cyanophenyl)-3-(4-(2-morpholinoethoxy)-3-((trifluoromethyl)sulfonyl)phenyl)urea] | 5.01 |  |  |  |  | 2.24 °C | -9.02 °C |
| CN(C)CCc1cc(C#N)ccc1NC(=O)Nc1ccc(Cl)c(S(=O)(=O)C(F)(F)F)c1 [Compound 296, 1-(4-chloro-3-((trifluoromethyl)sulfonyl)phenyl)-3-(4-cyano-2-(2-(dimethylamino)ethyl)phenyl)urea] | < 5.00 |  |  |  |  | 0.43 °C | -5.21 °C |

Now from value to molecule, other results behind:

| pIC50 [1] | ΔTm at 12.5 µM [2, 5] | SMILES | mrna remaining at 10 µM (DNAJB1 equals Hsp40) | mrna remaining at 10 µM (Hsp70) | half-life at 1 μM [3] | ΔTm at 12.5 µM [2] | ΔTm at 25 µM [4] |
| --- | --- | --- | --- | --- | --- | --- | --- |
| 5.66 | 2.11 °C | N#Cc1ccc(NC(=O)Nc2ccc3c(c2)S(=O)(=O)C=C3)cc1 [Compound 244, 1-(4-cyanophenyl)-3-(1,1-dioxidobenzo[b]thiophen-6-yl)urea] |  |  | 2.58 h |  |  |
| < 5.00 | 2.74 °C | N#Cc1ccc(NC(=O)Nc2ccc3nsnc3c2)cc1 [Compound 245, 1-(benzo[c][1,2,5]thiadiazol-5-yl)-3-(4-cyanophenyl)urea] | 39% | 36% |  |  |  |
| 5.62 | 2.8 °C | COc1cc(NC(=O)Nc2ccc(Cl)c(C(F)(F)F)c2)ccc1C#N [Compound 247, 1-(4-chloro-3-(trifluoromethyl)phenyl)-3-(4-cyano-3-methoxyphenyl)urea] | 73% | 63% |  |  |  |
| 5.01 | 0.84 °C | N#Cc1ccc(NC(=O)Nc2ccc3c(c2)S(=O)(=O)C=C3)cn1 [Compound 265, 1-(6-cyanopyridin-3-yl)-3-(1,1-dioxidobenzo[b]thiophen-6-yl)urea] | 77% | 88% |  |  |  |
| 6.09 | -0.64 °C | N#Cc1ccc(NC(=O)Nc2ccc3c(c2)S(=O)(=O)C=C3)nc1 [Compound 266, 1-(5-cyanopyridin-2-yl)-3-(1,1-dioxidobenzo[b]thiophen-6-yl)urea] | 93% | 83% |  |  |  |
| < 5.00 | 1.1 °C | N#Cc1ccc(NC(=O)Nc2ccc(Cl)c(S(=O)(=O)C(F)(F)F)c2)c(CN2CCOCC2)c1 [Compound 297, 1-(4-chloro-3-((trifluoromethyl)sulfonyl)phenyl)-3-(4-cyano-2-(morpholinomethyl)phenyl)urea] |  |  |  |  | 2.08 °C |
| < 5.00 | 1 °C | N#Cc1ccc(NC(=O)Nc2ccc(Cl)c(S(=O)(=O)C(F)(F)F)c2)c(CCN2CCOCC2)c1 [Compound 298, 1-(4-chloro-3-((trifluoromethyl)sulfonyl)phenyl)-3-(4-cyano-2-(2-morpholinoethyl)phenyl)urea] |  |  |  |  | 2.28 °C |
| < 5.00 | 0.2 °C | N#Cc1ccc(NC(=O)Nc2ccc(Cl)c(S(=O)(=O)C(F)(F)F)c2)c(OCCN2CCOCC2)c1 [Compound 299, 1-(4-chloro-3-((trifluoromethyl)sulfonyl)phenyl)-3-(4-cyano-2-(2-morpholinoethoxy)phenyl)urea] |  |  |  |  | 0.49 °C |

From patent publication US20240317727A1 (Duke University, priority 2018, published 2024)
